Where two headings read alike, the source gives them in different places.
Experiments:
Assay type in all cases: in vivo
[1] = test system: Cabbage Looper (Trichoplusia ni, TRIPNI); experiment: Bioassay on Cabbage Looper (CL), 128-well diet tray assay; settings: Trichoplusia ni
How it was run: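 Mortality of second instar larvae exposed to diet coated with 50 μg/cm^2 compound (acetone-water 90:10 vehicle, dried); 25° C., 5–7 days.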

[2] = test system: Beet Armyworm (Spodoptera exigua, LAPHEG); experiment: Bioassay on Beet Armyworm (BAW), 128-well diet tray assay
How it was run: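 Second-instar larvae, one to five per well, placed on artificial diet surface-treated with 50 μg/cm^2 compound applied in 90:10 acetone-water and dried. Held 5–7 days at 25° C., 14:10 light-dark. Percent mortality recorded per well and averaged over eight wells.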

[3] = test system: Yellow Fever Mosquito (Aedes aegypti, AEDSAE); experiment: Bioassay on Yellow Fever Mosquito (YFM), 96-well plate larval assay; settings: for YFM (Biological Results, rating): Species YFM (Yellow Fever Mosquito); for YFM rating: Yellow Fever Mosquito, 96-well plate larval assay
How it was run: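 Each well was scored for mortality after 3 days at room temperature under a non-evaporative lid. Test molecules came from DMSO masters (4000 ppm stock) diluted with water/acetone 90:10 and dispensed into six replicate plates, which were then infested with roughly 1-day-old larvae in liver-powder water.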

[4] = Species CL (Cabbage Looper), read-out: CL (Biological Results, rating)
[5] = Species BAW (Beet Armyworm), read-out: BAW (Biological Results, rating)
[6] = Cabbage Looper, 128-well diet tray assay, read-out: CL rating
[7] = Beet Armyworm, 128-well diet tray assay, read-out: BAW rating

Row | SMILES | pest or weed control at 50 µg/cm2 [1, 4] | pest or weed control at 50 µg/cm2 [2, 5] | YFM (Biological Results, rating) [3] | pest or weed control at 50 µg/cm2 [1, 6] | pest or weed control at 50 µg/cm2 [2, 7] | YFM rating [3]
1 | Nc1c(F)cc(F)cc1NC(=O)c1cc(NC(=O)[C@H]2[C@H](c3cc(Cl)cc(Cl)c3)C2(Cl)Cl)ccc1Cl [F360, N-(2-Amino-3,5-difluorophenyl)-2-chloro-5-((1R,3R)-2,2-dichloro-3-(3,5-dichlorophenyl)cyclopropane-1-carboxamido)benzamide] | 50 to 100% | 50 to 100% | A (80-100) | – | – | –
2 | Nc1cncc(NC(=O)c2cc(NC(=O)[C@H]3[C@H](c4cc(Cl)cc(Cl)c4)C3(Cl)Cl)ccc2Cl)c1 [F362, N-(5-aminopyridin-3-yl)-2-chloro-5-((1R,3R)-2,2-dichloro-3-(3,5-dichlorophenyl)cyclopropane-1-carboxamido)benzamide] | 50 to 100% | 50 to 100% | A (80-100) | – | – | –
3 | Nc1cncc(NC(=O)c2cc(NC(=O)[C@H]3[C@H](c4ccc(Cl)c(Cl)c4)C3(Cl)Cl)ccc2Cl)c1 [F363, N-(5-Aminopyridin-3-yl)-2-chloro-5-((1R,3R)-2,2-dichloro-3-(3,4-dichlorophenyl)cyclopropane-1-carboxamido)benzamide] | 50 to 100% | 50 to 100% | A (80-100) | – | – | –
4 | O=C(Nc1ccnc(Cl)c1)c1cc(NC(=O)[C@H]2[C@H](c3cc(Cl)cc(Cl)c3)C2(Cl)Cl)ccc1Cl [F368, 2-Chloro-N-(2-chloropyridin-4-yl)-5-((1R,3R)-2,2-dichloro-3-(3,5-dichlorophenyl)cyclopropane-1-carboxamido)benzamide] | 50 to 100% | 50 to 100% | A (80-100) | – | – | –
5 | O=C(Nc1ccnc(Cl)c1)c1cc(NC(=O)[C@H]2[C@H](c3ccc(Cl)c(Cl)c3)C2(Cl)Cl)ccc1Cl [F369, 2-Chloro-N-(2-chloropyridin-4-yl)-5-((1R,3R)-2,2-dichloro-3-(3,4-dichlorophenyl)cyclopropane-1-carboxamido)benzamide] | 50 to 100% | 50 to 100% | A (80-100) | – | – | –
6 | Nc1c(F)cnc(NC(=O)c2cc(NC(=O)[C@H]3[C@H](c4cc(Cl)cc(Cl)c4)C3(Cl)Cl)ccc2Cl)c1F [F370, N-(4-Amino-3,5-difluoropyridin-2-yl)-2-chloro-5-((1R,3R)-2,2-dichloro-3-(3,5-dichlorophenyl)cyclopropane-1-carboxamido)benzamide] | 50 to 100% | 50 to 100% | A (80-100) | – | – | –
7 | Nc1c(F)cnc(NC(=O)c2cc(NC(=O)[C@H]3[C@H](c4ccc(Cl)c(Cl)c4)C3(Cl)Cl)ccc2Cl)c1F [F371, N-(4-Amino-3,5-difluoropyridin-2-yl)-2-chloro-5-((1R,3R)-2,2-dichloro-3-(3,4-dichlorophenyl)cyclopropane-1-carboxamido)benzamide] | 50 to 100% | 50 to 100% | A (80-100) | – | – | –
8 | Nc1c(F)cnc(NC(=O)c2cc(NC(=O)[C@H]3[C@H](c4cc(Cl)c(Cl)c(Cl)c4)C3(Cl)Cl)ccc2Cl)c1F [F372, N-(4-Amino-3,5-difluoropyridin-2-yl)-2-chloro-5-((1R,3R)-2,2-dichloro-3-(3,4,5-trichlorophenyl)cyclopropane-1-carboxamido)benzamide] | 50 to 100% | 50 to 100% | A (80-100) | – | – | –
9 | Nc1ccc(F)cc1NC(=O)c1cc(NC(=O)[C@H]2[C@H](c3cc(Cl)cc(Cl)c3)C2(Cl)Cl)ccc1Cl [F373, N-(2-Amino-5-fluorophenyl)-2-chloro-5-((1R,3R)-2,2-dichloro-3-(3,5-dichlorophenyl)cyclopropane-1-carboxamido)benzamide] | – | – | – | 50 to 100% | 50 to 100% | A (80-100)
10 | Nc1c(F)cc(F)cc1NC(=O)c1cc(NC(=O)[C@H]2[C@H](c3ccc(Cl)c(Cl)c3)C2(Cl)Cl)ccc1Cl [F377, N-(2-Amino-3,5-difluorophenyl)-2-chloro-5-((1R,3R)-2,2-dichloro-3-(3,4-dichlorophenyl)cyclopropane-1-carboxamido)benzamide] | – | – | – | 50 to 100% | 50 to 100% | A (80-100)
11 | Nc1c(F)cc(NC(=O)c2cc(NC(=O)[C@H]3[C@H](c4cc(Cl)cc(Cl)c4)C3(Cl)Cl)ccc2Cl)cc1F [F378, N-(4-Amino-3,5-difluorophenyl)-2-chloro-5-((1R,3R)-2,2-dichloro-3-(3,5-dichlorophenyl)cyclopropane-1-carboxamido)benzamide] | – | – | – | 50 to 100% | 50 to 100% | B (More than 0-Less than 80)
12 | Nc1c(F)cc(NC(=O)c2cc(NC(=O)[C@H]3[C@H](c4ccc(Cl)c(Cl)c4)C3(Cl)Cl)ccc2Cl)cc1F [F379, N-(4-Amino-3,5-difluorophenyl)-2-chloro-5-((1R,3R)-2,2-dichloro-3-(3,4-dichlorophenyl)cyclopropane-1-carboxamido)benzamide] | – | – | – | 50 to 100% | 50 to 100% | A (80-100)
13 | Nc1c(F)cc(NC(=O)c2cc(NC(=O)[C@H]3[C@H](c4cc(Cl)c(Cl)c(Cl)c4)C3(Cl)Cl)ccc2Cl)cc1F [F380, N-(4-Amino-3,5-difluorophenyl)-2-chloro-5-((1R,3R)-2,2-dichloro-3-(3,4,5-trichlorophenyl)cyclopropane-1-carboxamido)benzamide] | – | – | – | 50 to 100% | 50 to 100% | A (80-100)
14 | Nc1c(F)cc(NC(=O)c2cc(NC(=O)[C@H]3[C@H](c4ccc(F)c(Cl)c4)C3(Cl)Cl)ccc2Cl)cc1F [F381, N-(4-Amino-3,5-difluorophenyl)-2-chloro-5-((1R,3R)-2,2-dichloro-3-(3-chloro-4-fluorophenyl)cyclopropane-1-carboxamido)benzamide] | – | – | – | 50 to 100% | 50 to 100% | A (80-100)
15 | Nc1cc(NC(=O)c2cc(NC(=O)[C@H]3[C@H](c4cc(Cl)c(Cl)c(Cl)c4)C3(Cl)Cl)ccc2Cl)c(F)cc1F [F402, N-(5-Amino-2,4-difluorophenyl)-2-chloro-5-((1R,3R)-2,2-dichloro-3-(3,4,5-trichlorophenyl)cyclopropane-1-carboxamido)benzamide] | – | – | – | 50 to 100% | 50 to 100% | A (80-100)
16 | Nc1cc(NC(=O)c2cc(NC(=O)[C@H]3[C@H](c4ccc(F)c(Cl)c4)C3(Cl)Cl)ccc2Cl)c(F)cc1F [F403, N-(5-Amino-2,4-difluorophenyl)-2-chloro-5-((1R,3R)-2,2-dichloro-3-(3-chloro-4-fluorophenyl)cyclopropane-1-carboxamido)benzamide] | – | – | – | 50 to 100% | 50 to 100% | A (80-100)
17 | Nc1c(F)cc(F)cc1NC(=O)c1cc(NC(=O)[C@H]2[C@H](c3cc(Cl)c(Cl)c(Cl)c3)C2(Cl)Cl)ccc1Cl [F404, N-(2-Amino-3,5-difluorophenyl)-2-chloro-5-((1R,3R)-2,2-dichloro-3-(3,4,5-trichlorophenyl)cyclopropane-1-carboxamido)benzamide] | – | – | – | 50 to 100% | 50 to 100% | A (80-100)
18 | Nc1ccc(F)cc1NC(=O)c1cc(NC(=O)[C@H]2[C@H](c3cc(Cl)c(Cl)c(Cl)c3)C2(Cl)Cl)ccc1Cl [F405, N-(2-Amino-5-fluorophenyl)-2-chloro-5-((1R,3R)-2,2-dichloro-3-(3,4,5-trichlorophenyl)cyclopropane-1-carboxamido)benzamide] | – | – | – | 50 to 100% | 50 to 100% | A (80-100)
19 | Nc1cc(F)cc(F)c1NC(=O)c1cc(NC(=O)[C@H]2[C@H](c3cc(Cl)cc(Cl)c3)C2(Cl)Cl)ccc1Cl [F406, N-(2-Amino-4,6-difluorophenyl)-2-chloro-5-((1R,3R)-2,2-dichloro-3-(3,5-dichlorophenyl)cyclopropane-1-carboxamido)benzamide] | – | – | – | 50 to 100% | 50 to 100% | A (80-100)
20 | Nc1cc(F)cc(F)c1NC(=O)c1cc(NC(=O)[C@H]2[C@H](c3ccc(Cl)c(Cl)c3)C2(Cl)Cl)ccc1Cl [F407, N-(2-amino-4,6-difluorophenyl)-2-chloro-5-((1R,3R)-2,2-dichloro-3-(3,4-dichlorophenyl)cyclopropane-1-carboxamido)benzamide] | – | – | – | 50 to 100% | 50 to 100% | A (80-100)
21 | Nc1cc(F)cc(F)c1NC(=O)c1cc(NC(=O)[C@H]2[C@H](c3cc(Cl)c(Cl)c(Cl)c3)C2(Cl)Cl)ccc1Cl [F408, N-(2-Amino-4,6-difluorophenyl)-2-chloro-5-((1R,3R)-2,2-dichloro-3-(3,4,5-trichlorophenyl)cyclopropane-1-carboxamido)benzamide] | – | – | – | 50 to 100% | 50 to 100% | A (80-100)
22 | Nc1cc(F)cc(F)c1NC(=O)c1cc(NC(=O)[C@H]2[C@H](c3ccc(F)c(Cl)c3)C2(Cl)Cl)ccc1Cl [F409, N-(2-Amino-4,6-difluorophenyl)-2-chloro-5-((1R,3R)-2,2-dichloro-3-(3-chloro-4-fluorophenyl)cyclopropane-1-carboxamido)benzamide] | – | – | – | 50 to 100% | 50 to 100% | A (80-100)

From patent publication US10219516B2, “Molecules having pesticidal utility, and intermediates, compositions, and processes, related thereto” (priority 2015, dated 2019)
